We go through two molecules from patent US20230303635A1, “DIAGNOSTIC METHODS AND COMPOSITIONS” (THE REGENTS OF THE UNIVERSITY OF CALIFORNIA, priority 2020, published 2023).

Read-outs that look alike come from different tables or passages of the source.

Experiment [1] addresses receptor binding domain (RBD) of the SARS-CoV-2 spike protein (Severe acute respiratory syndrome coronavirus 2, UniProt P0DTC2). Conditions: cited from earlier work.
Experiment [2] is described as follows: Fluorescence spectroscopy of gpW FRET constructs upon pH titration.
Description: Accordingly, the fluorescence integration was employed on this variant. Specifically, an extra cysteine was added at the N-terminal (N-ter), e.g., position 1, and the second cysteine was introduced near the C-terminal (C-ter) by replacing the methionine at position 56. These mutations allow us to chemically label the L7H with a FRET-pair to monitor the end-to-end distance of L7H (L7H-FRET). Another FRET-construct was also designed to measure the distance change between the beta-hairpin and the helix-1. […] In this regard, two cysteines were placed on the M18H-F35H variant by adding one cysteine at the N-ter (position 1) and replacing an aspartate (position 29) with cysteine. […] In both constructs, Alexa-488 maleimide and Alexa-594 maleimide are used as the FRET pair as they have many advantageous features. […]
Proteins samples were prepared at different pH by adding the labeled proteins 20 mM citrate buffer for experiments in the 3-6 pH range, phosphate buffer pH 7, and Tris-HCl buffer for the 8-9 pH range. […] Fluorescence emission spectra were recorded between 630 nm and 740 nm by exciting the ATTO 655 at 620 nm or between 490 nm and 720 nm by exciting the Alexa 488 at 480 nm. The pH titration on L7H-helix was triplicated, and L7H-Cter was replicated five times to calculate the standard deviation due to the concentration dependence of the PET fluorescence technique.

For the molecule “GSGSGSTIEEQAKTFLDKANCEAEDLAYQSSLAS [ACE-2 α-helix]”, the Kd (as a rule, the free concentration of one partner at which half of the binding sites on the other are occupied at equilibrium, for simple one-to-one binding) was 1000 nM in experiment [1] (read-out: binding affinity (KD) to SARS-CoV-2 S protein) and 50 nM in experiment [1] (read-out: binding affinity (Kd) to SARS-CoV-2 spike protein RBD).

B1: L7H: single histidine graft L7H on downhill folding protein gpW (protein, UniProt P68660 1-68, looked up, variant L7H)
Head completion protein: MTRQEEHAAARAALHDLMTGKRVATVQKDGRRVEFTATSVSDLKKYIAELEVQTGMTQRRRGPAGFYV
In the case of B1, the “distance change as a function of pH” value in experiment [2] is given as “less than 1 nm”.
